Measured values as given in paper PMC9898036, “VIP152 is a selective CDK9 inhibitor with pre-clinical in vitro and in vivo efficacy in chronic lymphocytic leukemia” (Leukemia, 2022).

Legend:
Assay in all cases: DiscoverX KINOMEscan kinase profiling (468 assays)
Assay type in all cases: binding
[1] = molecular target: human kinome (Homo sapiens, UniProt P11309); conditions: read-out: Percent Control
In short: (§1)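 VIP152 was run in DMSO, alongside a DMSO control. Readout was qPCR of DNA-tagged kinase still bound to bead-immobilized biotinylated kinase ligands after compound competition.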

[2] = molecular target: human kinome (Homo sapiens, UniProt O14730); conditions: kinase RIOK3 (Entrez RIOK3); compound concentration 1000 nM; read-out: Percent Control
In short: as §1

[3] = molecular target: human kinome (Homo sapiens, UniProt Q86UE8); conditions: kinase TLK2 (Entrez TLK2); compound concentration 1000 nM; read-out: Percent Control
In short: as §1

[4] = molecular target: human kinome (Homo sapiens, UniProt Q13976); conditions: read-out: Percent Control
In short: as §1

[5] = molecular target: human kinome (Homo sapiens, UniProt Q8N752); conditions: CSNK1A1L; 100 nM; read-out: Percent Control
In short: as §1

[6] = molecular target: human kinome (Homo sapiens, UniProt Q96J92); conditions: kinase WNK4 (Entrez WNK4); compound concentration 1000 nM; read-out: Percent Control
In short: as §1

[7] = molecular target: human kinome (Homo sapiens, UniProt O14757); conditions: CHEK1; 100 nM; read-out: Percent Control
In short: as §1

[8] = molecular target: human kinome (Homo sapiens, UniProt P51957); conditions: read-out: Percent Control
In short: as §1

[9] = molecular target: human kinome (Homo sapiens, UniProt Q02156); conditions: read-out: Percent Control
In short: as §1

[10] = molecular target: human kinome (Homo sapiens, UniProt O15111); conditions: IKK-alpha (Entrez CHUK); 100 nM; read-out: Percent Control
In short: as §1

[11] = system: human kinome; conditions: for Percent Control: 100 nM
In short: as §1

[12] = molecular target: human kinome (Homo sapiens, UniProt P08069); conditions: IGF1R; 100 nM; read-out: Percent Control
In short: as §1

[13] = molecular target: human kinome (Homo sapiens, UniProt Q2M2I8); conditions: AAK1; 100 nM; read-out: Percent Control
In short: as §1

[14] = molecular target: human kinome (Homo sapiens, UniProt Q8TD08); conditions: ERK8 (Entrez MAPK15); 100 nM; read-out: Percent Control
In short: as §1

[15] = molecular target: human kinome (Homo sapiens, UniProt O95819); conditions: MAP4K4; 100 nM; read-out: Percent Control
In short: as §1

[16] = molecular target: human kinome (Homo sapiens, UniProt P36888, D835H); conditions: FLT3(D835H); 100 nM; read-out: Percent Control
In short: as §1

[17] = molecular target: human kinome (Homo sapiens, UniProt Q9H3Y6); conditions: kinase SRMS (Entrez SRMS); compound concentration 1000 nM; read-out: Percent Control
In short: as §1

[18] = molecular target: human kinome (Homo sapiens, UniProt P22694); conditions: read-out: Percent Control
In short: as §1

[19] = molecular target: human kinome (Homo sapiens, UniProt P00533, L858R); conditions: EGFR(L858R); 100 nM; read-out: Percent Control
In short: as §1

[20] = molecular target: human kinome (Homo sapiens, UniProt Q96NX5); conditions: CAMK1G; 100 nM; read-out: Percent Control
In short: as §1

[21] = molecular target: human kinome (Homo sapiens, UniProt Q09013); conditions: DMPK; 100 nM; read-out: Percent Control
In short: as §1

[22] = molecular target: human kinome (Homo sapiens, UniProt P53355); conditions: DAPK1; 100 nM; read-out: Percent Control
In short: as §1

[23] = molecular target: human kinome (Homo sapiens, UniProt Q6P3R8); conditions: read-out: Percent Control
In short: as §1

[24] = molecular target: human kinome (Homo sapiens, UniProt Q9UQM7); conditions: CAMK2A; 100 nM; read-out: Percent Control
In short: as §1

[25] = molecular target: human kinome (Homo sapiens, UniProt Q13882); conditions: BRK (Entrez PTK6); 100 nM; read-out: Percent Control
In short: as §1

[26] = molecular target: human kinome (Homo sapiens, UniProt P53350); conditions: read-out: Percent Control
In short: as §1

[27] = molecular target: human kinome (Homo sapiens, UniProt P00533, G719S); conditions: EGFR(G719S); 100 nM; read-out: Percent Control
In short: as §1

[28] = molecular target: human kinome (Homo sapiens, UniProt Q9NYL2); conditions: kinase ZAK (Entrez ZAK); compound concentration 1000 nM; read-out: Percent Control
In short: as §1

[29] = molecular target: human kinome (Homo sapiens, UniProt Q13555); conditions: CAMK2G; 100 nM; read-out: Percent Control
In short: as §1

human kinome (Homo sapiens, UniProt Q02156), sequence (Q02156 whole entry): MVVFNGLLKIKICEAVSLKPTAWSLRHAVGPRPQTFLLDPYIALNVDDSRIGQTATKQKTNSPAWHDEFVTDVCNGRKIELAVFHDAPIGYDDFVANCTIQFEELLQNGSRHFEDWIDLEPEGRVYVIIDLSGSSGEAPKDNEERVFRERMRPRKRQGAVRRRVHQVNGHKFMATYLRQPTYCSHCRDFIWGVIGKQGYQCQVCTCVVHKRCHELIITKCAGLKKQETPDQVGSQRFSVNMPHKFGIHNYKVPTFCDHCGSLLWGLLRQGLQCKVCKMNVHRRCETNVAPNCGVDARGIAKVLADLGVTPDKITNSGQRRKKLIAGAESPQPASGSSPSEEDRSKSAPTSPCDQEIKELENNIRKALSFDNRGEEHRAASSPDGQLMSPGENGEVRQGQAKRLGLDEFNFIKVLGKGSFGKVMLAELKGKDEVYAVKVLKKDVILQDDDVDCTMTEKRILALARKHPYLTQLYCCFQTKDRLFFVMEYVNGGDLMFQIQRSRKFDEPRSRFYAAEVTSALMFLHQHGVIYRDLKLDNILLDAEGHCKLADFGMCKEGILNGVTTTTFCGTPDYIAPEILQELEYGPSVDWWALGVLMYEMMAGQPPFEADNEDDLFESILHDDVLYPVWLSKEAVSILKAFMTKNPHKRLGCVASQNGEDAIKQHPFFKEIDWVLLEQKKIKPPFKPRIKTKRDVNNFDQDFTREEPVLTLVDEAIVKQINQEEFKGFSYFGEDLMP
human kinome (Homo sapiens, UniProt P11309), sequence (P11309 whole entry): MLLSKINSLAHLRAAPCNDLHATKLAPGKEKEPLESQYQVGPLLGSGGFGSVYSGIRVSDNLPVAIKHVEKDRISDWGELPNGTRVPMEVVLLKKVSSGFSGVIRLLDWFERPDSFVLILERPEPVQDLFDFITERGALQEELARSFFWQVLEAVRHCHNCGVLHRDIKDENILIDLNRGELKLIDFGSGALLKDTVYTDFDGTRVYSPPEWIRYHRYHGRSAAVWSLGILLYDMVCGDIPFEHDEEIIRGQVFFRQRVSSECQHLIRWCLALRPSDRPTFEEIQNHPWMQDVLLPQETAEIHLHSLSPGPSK
human kinome (Homo sapiens, UniProt Q6P3R8), sequence (Q6P3R8 whole entry): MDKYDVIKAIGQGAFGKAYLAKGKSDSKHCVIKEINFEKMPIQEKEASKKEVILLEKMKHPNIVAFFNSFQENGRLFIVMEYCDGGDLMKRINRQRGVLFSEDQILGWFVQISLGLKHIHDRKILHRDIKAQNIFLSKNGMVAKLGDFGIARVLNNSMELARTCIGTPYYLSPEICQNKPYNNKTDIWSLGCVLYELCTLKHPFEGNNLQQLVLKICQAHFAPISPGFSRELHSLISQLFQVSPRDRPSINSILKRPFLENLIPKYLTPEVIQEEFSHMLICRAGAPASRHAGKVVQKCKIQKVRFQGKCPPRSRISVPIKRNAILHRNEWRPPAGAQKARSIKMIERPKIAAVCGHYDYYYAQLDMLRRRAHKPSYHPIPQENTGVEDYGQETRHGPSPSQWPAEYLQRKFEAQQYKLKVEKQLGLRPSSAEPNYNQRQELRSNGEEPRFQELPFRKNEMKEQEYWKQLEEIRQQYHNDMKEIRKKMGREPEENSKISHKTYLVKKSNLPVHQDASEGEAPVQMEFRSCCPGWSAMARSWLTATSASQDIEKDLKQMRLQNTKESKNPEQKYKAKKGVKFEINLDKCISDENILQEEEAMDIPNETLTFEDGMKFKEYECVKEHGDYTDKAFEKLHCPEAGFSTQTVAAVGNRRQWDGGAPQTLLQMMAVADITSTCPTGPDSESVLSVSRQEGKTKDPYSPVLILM
human kinome (Homo sapiens, UniProt Q13976), sequence (Q13976 whole entry): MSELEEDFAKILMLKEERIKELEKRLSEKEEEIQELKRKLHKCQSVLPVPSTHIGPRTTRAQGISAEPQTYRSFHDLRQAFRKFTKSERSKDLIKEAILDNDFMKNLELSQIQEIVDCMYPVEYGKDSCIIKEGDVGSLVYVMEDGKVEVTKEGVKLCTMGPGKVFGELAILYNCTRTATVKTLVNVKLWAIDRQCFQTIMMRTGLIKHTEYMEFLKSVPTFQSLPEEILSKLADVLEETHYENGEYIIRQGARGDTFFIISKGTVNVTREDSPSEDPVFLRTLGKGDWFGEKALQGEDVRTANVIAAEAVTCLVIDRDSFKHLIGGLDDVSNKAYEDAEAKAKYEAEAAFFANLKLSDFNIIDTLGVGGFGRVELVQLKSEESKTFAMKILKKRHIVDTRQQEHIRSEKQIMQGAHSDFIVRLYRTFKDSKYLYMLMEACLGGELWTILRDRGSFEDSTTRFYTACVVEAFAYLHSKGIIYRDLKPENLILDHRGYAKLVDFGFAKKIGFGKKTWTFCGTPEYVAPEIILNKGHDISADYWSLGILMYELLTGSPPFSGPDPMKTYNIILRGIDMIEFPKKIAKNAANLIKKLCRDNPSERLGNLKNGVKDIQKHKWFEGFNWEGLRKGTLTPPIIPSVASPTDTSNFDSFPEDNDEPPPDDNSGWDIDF
human kinome (Homo sapiens, UniProt P51957), sequence (P51957 whole entry): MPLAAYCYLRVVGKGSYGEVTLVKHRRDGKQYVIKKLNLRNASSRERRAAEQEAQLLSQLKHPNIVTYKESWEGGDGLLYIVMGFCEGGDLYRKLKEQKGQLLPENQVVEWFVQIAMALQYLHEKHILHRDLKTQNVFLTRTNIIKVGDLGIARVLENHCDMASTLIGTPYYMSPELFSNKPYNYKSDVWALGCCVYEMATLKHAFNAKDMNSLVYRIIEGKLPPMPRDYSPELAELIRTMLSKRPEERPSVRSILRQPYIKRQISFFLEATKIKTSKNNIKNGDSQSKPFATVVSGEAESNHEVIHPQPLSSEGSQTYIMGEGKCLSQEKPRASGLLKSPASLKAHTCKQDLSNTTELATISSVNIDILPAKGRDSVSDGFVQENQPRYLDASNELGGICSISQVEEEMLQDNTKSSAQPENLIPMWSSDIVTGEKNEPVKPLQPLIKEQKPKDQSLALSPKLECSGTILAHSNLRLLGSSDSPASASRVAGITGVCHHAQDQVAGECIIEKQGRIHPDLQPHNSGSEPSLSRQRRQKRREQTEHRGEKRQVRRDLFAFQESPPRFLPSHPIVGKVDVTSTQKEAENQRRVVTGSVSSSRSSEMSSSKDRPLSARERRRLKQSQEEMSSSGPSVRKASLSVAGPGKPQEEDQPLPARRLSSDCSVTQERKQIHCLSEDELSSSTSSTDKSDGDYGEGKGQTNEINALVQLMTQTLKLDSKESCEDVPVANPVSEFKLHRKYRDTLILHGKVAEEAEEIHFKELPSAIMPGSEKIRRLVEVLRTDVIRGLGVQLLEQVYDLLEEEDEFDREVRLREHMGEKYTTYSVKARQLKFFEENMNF
human kinome (Homo sapiens, UniProt P53350), sequence (P53350 whole entry): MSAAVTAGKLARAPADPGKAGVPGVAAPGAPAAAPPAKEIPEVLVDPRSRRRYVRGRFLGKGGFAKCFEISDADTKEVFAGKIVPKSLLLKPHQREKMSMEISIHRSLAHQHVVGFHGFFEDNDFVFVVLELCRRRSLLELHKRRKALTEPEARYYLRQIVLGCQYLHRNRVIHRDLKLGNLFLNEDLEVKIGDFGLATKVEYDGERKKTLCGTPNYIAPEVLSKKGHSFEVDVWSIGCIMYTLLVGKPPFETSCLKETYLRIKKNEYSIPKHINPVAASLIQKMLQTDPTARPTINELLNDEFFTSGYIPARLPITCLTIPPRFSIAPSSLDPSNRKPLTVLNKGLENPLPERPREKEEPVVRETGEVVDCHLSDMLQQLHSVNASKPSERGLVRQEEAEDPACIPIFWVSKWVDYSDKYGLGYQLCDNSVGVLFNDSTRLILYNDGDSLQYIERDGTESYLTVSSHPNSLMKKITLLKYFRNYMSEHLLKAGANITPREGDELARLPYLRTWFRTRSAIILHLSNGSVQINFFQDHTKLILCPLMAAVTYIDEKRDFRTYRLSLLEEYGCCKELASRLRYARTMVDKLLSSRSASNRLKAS
human kinome (Homo sapiens, UniProt O14757), sequence (O14757 whole entry): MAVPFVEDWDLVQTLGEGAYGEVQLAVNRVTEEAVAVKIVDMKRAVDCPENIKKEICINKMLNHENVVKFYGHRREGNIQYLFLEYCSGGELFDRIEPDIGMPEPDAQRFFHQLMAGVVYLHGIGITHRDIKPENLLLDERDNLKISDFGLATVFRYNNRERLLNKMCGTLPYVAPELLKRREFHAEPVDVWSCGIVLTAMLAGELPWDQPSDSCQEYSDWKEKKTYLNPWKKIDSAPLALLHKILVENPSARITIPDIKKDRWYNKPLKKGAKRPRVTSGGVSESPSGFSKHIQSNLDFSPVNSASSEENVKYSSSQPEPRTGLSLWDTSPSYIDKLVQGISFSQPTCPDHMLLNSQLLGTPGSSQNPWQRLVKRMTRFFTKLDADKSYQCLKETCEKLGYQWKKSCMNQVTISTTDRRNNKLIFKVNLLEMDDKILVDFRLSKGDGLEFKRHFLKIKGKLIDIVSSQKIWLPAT
human kinome (Homo sapiens, UniProt Q8TD08), sequence (Q8TD08 whole entry): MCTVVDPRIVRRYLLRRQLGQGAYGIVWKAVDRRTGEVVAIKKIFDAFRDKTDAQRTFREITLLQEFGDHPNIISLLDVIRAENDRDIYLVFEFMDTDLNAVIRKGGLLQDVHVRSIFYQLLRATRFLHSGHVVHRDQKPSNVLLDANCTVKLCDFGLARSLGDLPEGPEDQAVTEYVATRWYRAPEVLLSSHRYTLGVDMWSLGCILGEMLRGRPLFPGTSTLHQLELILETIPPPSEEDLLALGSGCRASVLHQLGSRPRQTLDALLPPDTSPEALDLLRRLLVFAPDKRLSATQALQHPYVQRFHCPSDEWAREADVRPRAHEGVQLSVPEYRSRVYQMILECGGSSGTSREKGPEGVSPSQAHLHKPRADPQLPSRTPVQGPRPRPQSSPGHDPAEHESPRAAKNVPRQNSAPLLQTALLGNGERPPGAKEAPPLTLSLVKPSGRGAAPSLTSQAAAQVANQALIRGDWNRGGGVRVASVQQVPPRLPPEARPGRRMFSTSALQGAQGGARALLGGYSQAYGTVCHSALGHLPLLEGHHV

`COc1cc(F)ccc1-c1cc(Nc2cc(CS(C)(=N)=O)ccn2)ncc1F` (stereo not drawn) [VIP152] was tested, and the remaining binding at 0.1 µM ([1]; PIM1, 100 nM) was 100%, the remaining binding at 1 µM ([1]; kinase PIM1 (Entrez PIM1), compound concentration 1000 nM) was 100% and the remaining binding at 1 µM [2] was 79%. For the same compound, the remaining binding at 1 µM [3] was 98%, the remaining binding at 0.1 µM ([4]; PRKG1, 100 nM) was 100% and the remaining binding at 1 µM ([4]; kinase PRKG1 (Entrez PRKG1), compound concentration 1000 nM) was 91%. For the same compound, the remaining binding at 0.1 µM [5] was 100%, the remaining binding at 1 µM [6] was 80% and the remaining binding at 0.1 µM [7] was 100%. It also gave a remaining binding at 0.1 µM ([8]; NEK4, 100 nM) of 100%, a remaining binding at 1 µM ([8]; kinase NEK4 (Entrez NEK4), compound concentration 1000 nM) of 100% and a remaining binding at 0.1 µM ([9]; PRKCE, 100 nM) of 58%. The remaining binding at 1 µM ([9]; kinase PRKCE (Entrez PRKCE), compound concentration 1000 nM) was 99%, the remaining binding at 0.1 µM [10] was 100% and the “Interactions Mapped” value ([11]; @100nM, 468 Assays Tested) was 4. For the same compound, the “Percent Control” value ([11]; EGFR(L747-E749del, A750P)) was 100%, the “Percent Control” value ([11]; EGFR(L747-S752del, P753S)) was 93% and the “Percent Control” value ([11]; EGFR(L747-T751del,Sins)) was 100%. The “Percent Control” value ([11]; FLT3(ITD)) was 100%, the “Percent Control” value ([11]; FLT3(ITD,D835V)) was 100% and the “Percent Control” value ([11]; FLT3(ITD,F691L)) was 99%. It also gave a remaining binding at 0.1 µM [12] of 79%, a remaining binding at 0.1 µM [13] of 100% and a remaining binding at 0.1 µM [14] of 94%. For the same compound, the remaining binding at 0.1 µM [15] was 73%, the remaining binding at 0.1 µM [16] was 100% and the remaining binding at 1 µM [17] was 83%. It also gave a remaining binding at 0.1 µM ([18]; PKAC-beta (Entrez PRKACB), 100 nM) of 100%, a remaining binding at 1 µM ([18]; kinase PKAC-beta (Entrez PRKACB), compound concentration 1000 nM) of 94% and a remaining binding at 0.1 µM [19] of 100%. It also gave a remaining binding at 0.1 µM [20] of 100%, a remaining binding at 0.1 µM [21] of 96% and a remaining binding at 0.1 µM [22] of 100%. The remaining binding at 0.1 µM ([23]; NEK5, 100 nM) was 100%, the remaining binding at 1 µM ([23]; kinase NEK5 (Entrez NEK5), compound concentration 1000 nM) was 92% and the remaining binding at 0.1 µM [24] was 91%. For the same compound, the remaining binding at 0.1 µM [25] was 100%, the remaining binding at 0.1 µM ([26]; PLK1, 100 nM) was 100% and the remaining binding at 1 µM ([26]; kinase PLK1 (Entrez PLK1), compound concentration 1000 nM) was 89%. It also gave a remaining binding at 0.1 µM [27] of 100%, a remaining binding at 1 µM [28] of 79% and a remaining binding at 0.1 µM [29] of 100%.
